The record followed here is patent US5854010A, “Bioassay for detecting 2,3,7,8-tetrachlorodibenzo-para-dioxin and TCDD-like compounds and novel recombinant cell line useful therefor” (priority 1997, dated 1998).

One data set has as its system H1L1.1 cells. The data set is described as follows: Dose response of luciferase induction, 24 h (FIGS. 3-6, Table 3). The following applies: for Maximal luciferase expression / Relative inducing potency versus TCDD: fused-ring PAHs, FIG. 6; for Emax / EC50: Mus musculus; for Emax / Induction of luciferase activity: mono-ortho-PCBs, FIG. 4; for Emax: vs 1 nM TCDD, read-out: Luciferase induction as % of that observed with TCDD. Format: cell-based, mouse. Here is the method: The graph of FIG. 3 illustrates the dose dependence of luciferase induction in the mouse H1L1.1 cells measured following […] of the cells to increasing concentrations of TCDD or other toxic compounds (which others are discussed in more detail below).
More particularly, the stable cell clones for the mouse H1L1.1 cells (about 90% confluent) were plated into six-well microplates (purchased from Corning) and incubated for 24 hours with the indicated concentration of the particular toxin solubilized in DMSO. Then, the cells were lysed with 100 μl of lysis buffer and luciferase activity was determined as described above. Values represent the mean ± the standard evaluation of at least triplicate determinations.
As set out in Table 3, the responsiveness and sensitivity of the mouse H1L1.1 cells was compared to the responsiveness and sensitivity of certain other published PCDH cell bioassay systems. The other systems were a recombinant HepG2 (101L) cell line that induces firefly luciferase (see, Postlind et al., supra), a recombinant Hepa1 (T13) cell line that induces PAP activity (see El-Fouly et al., supra), and a rat H4IIE cell line that induces EROD activity (see, Kennedy et al., supra). The ED50 values were calculated by probit analysis of the dose-response data.
As set out in the graphs of FIGS. 3-6, since one use of the stably transfected mouse H1L1.1 cell lines is for detection and relative quantitative analysis of TCDD and various dioxin-like compounds (i.e., AhR ligands), the ability of various compounds besides TCDD to induce luciferase activity in the mouse H1L1.1 cells was examined. The experiments performed to determine the dose-response curves for the toxins other than TCDD set out in the graphs of FIGS. 3-6 were performed in essentially the same manner as the experiments described above to determine the dose response curve of TCDD set out in the graph of FIG. 3.
Specifically, with respect to the data illustrated in the graph of FIG. 3, cells were incubated with increasing concentrations of test chemical and luciferase activity determined after 24 hours.
It should be noted that the low numerical values of luciferase activity from induction by various PCBs reported in FIGS. 4 and 5, compared to the values reported in the other figures, are not due to actual low levels of luciferase induction, but to the fact that the detection of luminescence in these experiments was performed using a different instrument from that used in the other experiments.
However, the relative magnitude of luciferase induction by the mono-ortho-PCBs (FIG. 4) and the AROCLORS (FIG. 5) was established by directly comparing the resulting activity to that produced by a maximally inducing dose of TCDD (1 nM solubilized in DMSO) measured in the same instrument.

Another data set deals with rat H4L1.1c4 cells. The data set is described as follows: Antagonism of TCDD luciferase induction by 2,2',5,5'-TCB (FIG. 7). Format: cell-based. The note with it: 24 h. Here is the method:
(§1) The bar graph of FIG. 7 illustrates that 2,2',5,5'-TCB antagonizes induction of luciferase activity by TCDD in a species-specific manner, and thus, 2,2',5,5'-TCB is not a TCDD-like compound as defined herein. In particular, six-well plates containing the indicated cell lines were incubated with DMSO (control), with TCDD (5 nM), with 2,2',5,5'-TCB (25 μM), or with both TCDD (5 nM) and 2,2',5,5'-TCB (25 μM) for 24 hours. Luciferase activity in cell lysates was determined as described above. Values represent the mean ± the standard evaluation of at least triplicate determinations.

For another data set, the system named is human HG2L1.1c3 cells. The data set is described as above. The following applies: 24 h. Format: cell-based. On the procedure: as §1
Data set [1] relates to guinea pig G16L1.1c8 cells. Described as above. The following applies: 24 h. Format: cell-based. Here is the method:
as §1

In another data set the test system is mouse H1L1.1 cells. The description is as above. Format: cell-based. On the procedure: as §1
A further data set relates to rat AhR. The data set is described as follows: Competitive inhibition of TCDD binding to AhR.
Another data set relates to mouse AhR. The data set is described as follows: Competitive inhibition of TCDD binding to AhR.
A further data set relates to guinea pig AhR. The data set is described as follows: Competitive inhibition of TCDD binding to AhR.

On to `O=c1cc(-c2ccccc2)oc2ccc3ccccc3c12` [BNF, β-naphthoflavone], for which, in the data set on H1L1.1 cells, the Maximal luciferase expression entry was “maximal luciferase expression was not reached” and the “Relative inducing potency versus TCDD” value is “substantially less potent than TCDD”.
In the same order, the values of `c1ccc2cc3c(ccc4ccccc43)cc2c1` [BA, benz[a]anthracene] are “maximal luciferase expression was not reached” and “substantially less potent than TCDD”.
For `Clc1ccc(Cl)c(-c2cc(Cl)ccc2Cl)c1` [2,2',5,5'-TCB, 2,2',5,5'-tetrachlorobiphenyl], the “Effect of 2,2',5,5'-TCB alone on luciferase activity” value in the data set on rat H4L1.1c4 cells (25 μM) is recorded as “no significant effect”; with human HG2L1.1c3 cells (25 μM) it was “no significant effect”; in data set [1] (25 μM), “no significant effect”; in the data set on mouse H1L1.1 cells (25 μM, 24 h), “no significant effect”. Besides, the “Reduction of TCDD luciferase induction” value was found to be 47% in the data set on rat H4L1.1c4 cells (TCB 25 μM + TCDD 5 nM) and 86% with mouse H1L1.1 cells (TCB 25 μM + TCDD 5 nM, 24 h). Also, the “Effect of 2,2',5,5'-TCB on TCDD luciferase induction” value (with human HG2L1.1c3 cells (TCB 25 μM + TCDD 5 nM); in data set [1] (TCB 25 μM + TCDD 5 nM)) was “not affected” throughout. The “Luminescence response of H1L1.1 cells” value in the data set with mouse H1L1.1 cells (2,2',5,5'-TCB alone, in words) is given as “will not cause the novel mouse H1L1.1 cell line to respond with luminescence”. The “Antagonism when added with TCDD” value with mouse H1L1.1 cells (in words) is given as “acts as an antagonist”. The “Competitive inhibition of TCDD binding” value in the data set on rat AhR is “competitively to inhibit TCDD binding”; with mouse AhR, “competitively to inhibit TCDD binding”; in the data set with guinea pig AhR it was “but not to the guinea pig and human AhRs”.
With `Clc1ccc(-c2cc(Cl)c(Cl)c(Cl)c2Cl)cc1Cl` [2,3,3',4,4',5-HCB, 2,3,3',4,4',5-hexachlorobiphenyl], in the data set on H1L1.1 cells (24 h), the Emax was in the range of 20 to 30% and the “Induction of luciferase activity” value stood at 10 fold.
What is called EC50 is the concentration needed to bring the measured effect to its halfway point. Turning to `Clc1cc2oc3cc(Cl)c(Cl)cc3c2cc1Cl` [2,3,7,8-TCDF, 2,3,7,8-tetrachlorodibenzofuran], in the data set with H1L1.1 cells (24 h, FIG. 3), the “Level of luciferase induction relative to TCDD” value was “comparable levels” and the EC50 was ~0.05 nM.
In the same order, the values of `Clc1cc2oc3c(Cl)c(Cl)c(Cl)cc3c2cc1Cl` [2,3,4,7,8-PCDF, 2,3,4,7,8-pentachlorodibenzofuran] are “comparable levels” and ~2 nM.
In the same order, the values of `Clc1ccc(-c2cc(Cl)c(Cl)c(Cl)c2)cc1Cl` [3,3',4,4',5-PCB, 3,3',4,4',5-pentachlorobiphenyl] are “comparable maximal levels” and 2 nM.
For the compound `Clc1ccc(-c2cc(Cl)c(Cl)c(Cl)c2Cl)cc1` [2,3,4,4',5-PCB, 2,3,4,4',5-pentachlorobiphenyl], in the data set with H1L1.1 cells (24 h), the Emax fell in the range of 20 to 30% and the “Induction of luciferase activity” value is 10 fold.
For the compound `Cc1ccc2cc3c(ccc4ccccc43)c3c2c1CC3` [3-MC, 3-methylcholanthrene], in the data set with H1L1.1 cells, the Maximal luciferase expression entry is recorded as “maximal luciferase expression was not reached” and the “Relative inducing potency versus TCDD” value was “substantially less potent than TCDD”.
`Clc1cc2c(cc1Cl)Oc1c(Cl)c(Cl)cc(Cl)c1O2` [1,2,4,7,8-PCDD, 1,2,4,7,8-pentachlorodibenzo-p-dioxin]: the Luciferase activation result in the data set with H1L1.1 cells (up to 10 μM, 24 h, FIG. 3) was “no luciferase activation”.
In the case of `Clc1ccc(-c2ccc(Cl)c(Cl)c2)cc1Cl` [3,3',4,4'-TCB, 3,3',4,4'-tetrachlorobiphenyl], in the data set with H1L1.1 cells (24 h, FIG. 3), the “Level of luciferase induction relative to TCDD” value is given as “comparable maximal levels” and the EC50 was 100 nM.
